Results on 43 compounds are retold here after patent publication US8759366B2, “Aminopyrimidines as SYK inhibitors” (Merck Sharp & Dohme Corp., priority 2009, dated 2014).

Molecules are shown by their SMILES.

This assay addresses rhSYK (Homo sapiens (Human), UniProt P43405). The note with it: read-out: rhSYK activity.

`Cc1cc(Nc2nccc(C)n2)cc(-c2cnc([C@]3(O)[C@H]4CC5C[C@H]3C[C@](C(=O)O)(C5)C4)s2)c1` [Example 4B-30]: the IC50 is under 100 nM.

For the compound `Cc1cc(Nc2nccc(C(F)(F)F)n2)cc(-c2cnc(C3(O)C4CC5C(C4C(=O)O)C53)s2)c1` (stereo not shown) [Example 4B-36], the IC50 was under 100 nM.

On to `Cc1cc(Nc2nccc(C(=O)N3CCNCC3)n2)cc(-c2cnc(C(C)(O)C(F)(F)F)s2)c1` (stereo not shown) [Example 69, [2-({3-methyl-5-[2-(1,1,1-trifluoro-2-hydroxypropan-2-yl)-1,3-thiazol-5-yl]phenyl}amino)-pyrimidin-4-yl](piperazin-1-yl)methanone], for which the IC50 was under 100 nM.

`CCOC(=O)C1CCC(O)(c2ncc(-c3cc(C)cc(Nc4nccc(C(F)(F)F)n4)c3)s2)CC1` (mixture of isomers) [Example 32, ethyl 4-hydroxy-4-[5-(3-methyl-5-{[4-(trifluoromethyl)pyrimidin-2-yl]amino}phenyl)-1,3-thiazol-2-yl]cyclohexanecarboxylate]: the IC50 is under 100 nM.

As to `Cc1cc(Nc2nccc(C(F)(F)F)n2)cc(-c2cnc(C3(O)CCC(N(C)C)CC3)s2)c1` (stereo not shown) [Example 4C-33], the IC50 was under 100 nM.

On to `Cc1cc(Nc2nccc(C(F)(F)F)n2)cc(-c2cnc(C3(O)C=CCCCC3)s2)c1` (stereo not shown) [Example 4B-55], for which the IC50 was under 100 nM.

As for `Cc1cc(Nc2nccc(C)n2)cc(-c2cnc(C3(O)CCC(C(=O)O)[C@@H]4CCCC[C@H]43)s2)c1` (stereo partly shown) [Example 4B-21], the IC50 is under 100 nM.

As for `Cc1cc(Nc2nccc(C(F)(F)F)n2)cc(-c2cnc(C(O)CCc3c[nH]cn3)s2)c1` (stereo not shown) [Example 4A-40, 3-(1H-imidazol-4-yl)-1-[5-(3-methyl-5-{[4-(trifluoromethyl)pyrimidin-2-yl]amino}phenyl)-1,3-thiazol-2-yl]propan-1-ol], the IC50 is under 100 nM.

On to `Cc1cc(Nc2nccc(C(F)(F)F)n2)cc(-c2cnc(C3(O)CCNC(=O)CC3)s2)c1` (stereo not shown) [Example 10, 5-Hydroxy-5-[5-(3-methyl-5-{[4-(trifluoromethyl)pyrimidin-2-yl]amino}phenyl)-1,3-thiazol-2-yl]azepan-2-one], for which the IC50 was under 100 nM.

Consider `Cc1cc(Nc2nccc(C(F)(F)F)n2)cc(-c2cnc(C3(O)CCC4(C)C(=O)CCC4(O)C3)s2)c1` (stereo not shown) [Example 4B-26], for which the IC50 was under 100 nM.

Consider `COC(=O)C1CCC(O)(c2ncc(-c3cc(C)cc(Nc4nccc(C)n4)c3)s2)CC1C(C)C` (stereo not shown) [Example 4C-17], for which the IC50 is under 100 nM.

As to `Cc1cc(Nc2nccc(C(F)(F)F)n2)cc(-c2cnc(C3(O)CN(C(C)(C)C(=O)O)C3)s2)c1` [Example 53(1), 2-{3-Hydroxy-3-[5-(3-methyl-5-{[4-(trifluoromethyl)pyrimidin-2-yl]amino}phenyl)-1,3-thiazol-2-yl]azetidin-1-yl}-2-methylpropanoic acid], the IC50 is under 100 nM.

For `Cc1cc(Nc2nccc(C(F)(F)F)n2)cc(-c2cnc(C3(O)CCCC(C)(CC(=O)O)C3)s2)c1` (stereo not shown) [Example 4C-22], the IC50 is under 100 nM.

As for `Cc1cc(Nc2nccc(C(F)(F)F)n2)cc(-c2cnc(C3(NS(N)(=O)=O)COC3)s2)c1` [Example 63, N-{3-[5-(3-methyl-5-{[4-(trifluoromethyl)pyrimidin-2-yl]amino}phenyl)-1,3-thiazol-2-yl]oxetan-3-yl}sulfuric diamide], the IC50 is under 100 nM.

For `CCOC(=O)C1CC=C(c2ncc(-c3cc(C)cc(Nc4nccc(C(F)(F)F)n4)c3)s2)CC1` (stereo not shown) [Example 34, ethyl 4-[5-(3-methyl-5-{[4-(trifluoromethyl)pyrimidin-2-yl]amino}phenyl)-1,3-thiazol-2-yl]cyclohex-3-ene-1-carboxylate], the IC50 lay in the range of 100 to 1000 nM.

Turning to `CCOC(=O)C1CCC(c2ncc(-c3cc(C)cc(Nc4nccc(C(F)(F)F)n4)c3)s2)CC1` (stereo not shown) [Example 35, ethyl 4-[5-(3-methyl-5-{[4-(trifluoromethyl)pyrimidin-2-yl]amino}phenyl)-1,3-thiazol-2-yl]cyclohexanecarboxylate], the IC50 lay in the range of 100 to 1000 nM.

On to `OC1(c2ncc(-c3cccc(Nc4nccc(C(F)(F)F)n4)c3)s2)CC2CCC1N2` (stereo not shown) [Example 4B-10], for which the IC50 lay within 100 to 1000 nM.

Take `Cc1cc(Nc2nccc(C)n2)cc(-c2cnc(C3(O)CCNC(=O)CC3)s2)c1` (stereo not shown) [4D-7]: the IC50 is under 100 nM.

Turning to `OC1(c2ncc(-c3cccc(Nc4nccc(C(F)(F)F)n4)c3)s2)CCN(C2CC2)CC1` [4D-3], the IC50 was under 100 nM.

For `Cc1cc(Nc2nccc(C(F)(F)F)n2)cc(-c2cnc(C3(C#N)CCC4(CC3)OCCO4)s2)c1` [8-[5-(3-methyl-5-{[4-(trifluoromethyl)pyrimidin-2-yl]amino}phenyl)-1,3-thiazol-2-yl]-1,4-dioxaspiro[4.5]decane-8-carbonitrile], the IC50 was under 100 nM.

`CC(C)(O)c1ncc(-c2cc(Br)cc(Nc3nccc(C(F)(F)F)n3)c2)s1` [Example 4A-4, 2-[5-(3-bromo-5-{[4-(trifluoromethyl)pyrimidin-2-yl]amino}phenyl)-1,3-thiazol-2-yl]propan-2-ol]: the IC50 is under 100 nM.

On to `CNC(=O)N1CCC(O)(c2ncc(-c3cc(C)cc(Nc4nccc(C(F)(F)F)n4)c3)s2)CC1` [Example 52, 4-hydroxy-N-methyl-4-[5-(3-methyl-5-{[4-(trifluoromethyl)pyrimidin-2-yl]amino}phenyl)-1,3-thiazol-2-yl]piperidine-1-carboxamide], for which the IC50 was under 100 nM.

For `CCOC(=O)N1CCC(O)(c2ncc(-c3cccc(Nc4nccc(C(F)(F)F)n4)c3)s2)CC1` [4D-4], the IC50 is under 100 nM.

As for `CCc1cc(Nc2nccc(C(F)(F)F)n2)cc(-c2cnc(C(C)(C)O)s2)c1` [Example 30, 2-[5-(3-ethyl-5-{[4-(trifluoromethyl)pyrimidin-2-yl]amino}phenyl)-1,3-thiazol-2-yl]propan-2-ol], the IC50 was under 100 nM.

With `CC(C)(c1ncc(-c2cc(N)cc(Nc3nccc(C(F)(F)F)n3)c2)s1)S(N)(=O)=O` [Example 71, 2-[5-(3-amino-5-{[4-(trifluoromethyl)pyrimidin-2-yl]amino}phenyl)-1,3-thiazol-2-yl]propane-2-sulfonamide], the IC50 was under 100 nM.

In the case of `OC1(c2ncc(-c3cc(Cl)cc(Nc4nccc(C(F)(F)F)n4)c3)s2)CCC1` [Example 3, 1-[5-(3-chloro-5-{[4-(trifluoromethyl)pyrimidin-2-yl]amino}phenyl)-1,3-thiazol-2-yl]cyclobutanol], the IC50 lay within 100 to 1000 nM.

With `Cc1cc(Nc2nccc(C(F)(F)F)n2)cc(-c2cnc(C(C)(O)c3ccc(CC(=O)O)cc3)s2)c1` (single isomer, unassigned) [Example 4A-59], the IC50 lay in the range of 100 to 1000 nM.

For the compound `COC(=O)NS(=O)(=O)N1CCC(O)(c2ncc(-c3cc(C)cc(Nc4nccc(OC)n4)c3)s2)CC1` [54(1), Methyl {[4-hydroxy-4-(5-{3-[(4-methoxypyrimidin-2-yl)amino]-5-methylphenyl}-1,3-thiazol-2-yl)piperidin-1-yl]sulfonyl}carbamate], the IC50 was under 100 nM.

Take `Cc1cc(Nc2nccc(C(F)(F)F)n2)cc(-c2cnc(C3(O)CCN(c4ccc(F)cc4)CC3)s2)c1` [4D-12]: the IC50 is under 100 nM.

Take `FC(F)(F)c1ccnc(Nc2cccc(-c3cncs3)c2)n1` [Intermediate 7, N-[3-(1,3-thiazol-5-yl)phenyl]-4-(trifluoromethyl)pyrimidin-2-amine]: the IC50 fell in the range of 100 to 1000 nM.

With `COc1ccnc(Nc2cc(C)cc(-c3cnc(C4(Cl)CCN(S(N)(=O)=O)CC4)s3)c2)n1` [54(2), 4-Chloro-4-(5-{3-[(4-methoxypyrimidin-2-yl)amino]-5-methylphenyl}-1,3-thiazol-2-yl)-piperidine-1-sulfonamide], the IC50 is under 100 nM.

For `Cc1cc(Nc2nccc(C(F)(F)F)n2)cc(-c2cnc(C3(O)CCN(c4ccccc4F)CC3)s2)c1` [4D-11], the IC50 is 100 to 1000 nM.

With `Cc1cc(Nc2nccc(C(F)(F)F)n2)cc(-c2cnc(C3(O)CCC(N)(C(=O)O)CC3)s2)c1` (stereo not shown) [Example 41, 1-amino-4-hydroxy-4-[5-(3-methyl-5-{[4-(trifluoromethyl)pyrimidin-2-yl]amino}phenyl)-1,3-thiazol-2-yl]cyclohexanecarboxylic acid], the IC50 was under 100 nM.

`CCOC(=O)C1CCC(O)(c2ncc(-c3cc(C)cc(Nc4nccc(C)n4)c3)s2)CC1c1ccc(F)cc1` (stereo not shown) [Example 4C-28]: the IC50 is 100 to 1000 nM.

Take `Cc1cc(Nc2nccc(C(F)(F)F)n2)cc(-c2cnc(C3(O)C[C@H]4CC(CC(=O)O)C[C@H]4C3)s2)c1` (stereo partly shown) [Example 4B-27]: the IC50 is under 100 nM.

As for `Cc1cc(Nc2nccc(C(F)(F)F)n2)cc(-c2cnc(C3(O)COC3)s2)c1` [Example 4B-12], the IC50 was under 100 nM.

As to `Cc1cc(Nc2nccc(C(F)(F)F)n2)cc(-c2cnc(C(O)C(F)(F)F)s2)c1` (stereo not shown) [Example 6, 2,2,2-trifluoro-1-[5-(3-methyl-5-{[4-(trifluoromethyl)pyrimidin-2-yl]amino}phenyl)-1,3-thiazol-2-yl]ethanol], the IC50 was under 100 nM.

Take `CCNC(=O)Nc1cc(Nc2nccc(C(F)(F)F)n2)cc(-c2cnc(C3CCC(C(N)=O)CC3)s2)c1` (single isomer, unassigned) [Example 20(2), 4-[5-(3-[(ethylcarbamoyl)amino]-5-{[4-(trifluoromethyl)pyrimidin-2-yl]amino}phenyl)-1,3-thiazol-2-yl]cyclohexanecarboxamide]: the IC50 was under 100 nM.

For the compound `OC1(c2ncc(-c3cccc(Nc4nccc(C(F)(F)F)n4)c3)s2)CCN(c2ccc(F)cc2)C1` (stereo not shown) [4D-2], the IC50 lay within 1000 to 10000 nM.

For the compound `OCCC(O)(CCO)c1ncc(-c2cccc(Nc3nccc(C(F)(F)F)n3)c2)s1` [Example 5, 3-[5-(3-{[4-(trifluoromethyl)pyrimidin-2-yl]amino}phenyl)-1,3-thiazol-2-yl]pentane-1,3,5-triol], the IC50 was 100 to 1000 nM.

For `Cc1cc(Nc2nccc(C(F)(F)F)n2)cc(-c2cnc(C3(O)CCN(c4ccccc4C)CC3)s2)c1` [4D-9], the IC50 is 100 to 1000 nM.

Regarding `COc1nc(Nc2cc(C)cc(-c3cnc(C(C)(O)CO)s3)c2)ncc1Cl` (stereo not shown) [Ex 5-19], the IC50 is under 100 nM.

As for `OC1(c2ncc(-c3cc(Nc4nccc(C(F)(F)F)n4)ccc3F)s2)CCC1` [Example 1, 1-[5-(2-fluoro-5-{[4-(trifluoromethyl)pyrimidin-2-yl]amino}phenyl)-1,3-thiazol-2-yl]cyclobutanol], the IC50 was in the range of 100 to 1000 nM.
